Source: patent US10174202B2, “Dyes with phosphinic acid, phosphinate, phosphonate and phosphonamidate substituents as auxochromic groups and methods for preparing the same” (Max-Planck-Gesellschaft zur Foerderung der Wissenschaften …, priority 2017, dated 2019)
Values joined by “and” are separate entries in the source; they are usually repeats but may differ in a detail not shown here. Equal values may be shown once. Where a name gives a salt, the structure may show the parent alone. Marks after values point to notes of the source that are not given here.

Key:
[1] = Absorption spectroscopy (UV/Vis); type: physicochemical
Method: (§1) Absorption spectra were recorded with a Varian Cary 4000 UV-Vis double-beam spectrophotometer (Agilent Technologies, USA). For the determination of the absorption spectra, quartz cells with a 1 cm path length were used. Emission spectra and fluorescence quantum yield were obtained on a Quantaurus-QY Absolute PL quantum yield spectrometer C11347 (Hamamatsu Photonics, Japan) or on a Varian Cary Eclipse fluorescence spectrometer (Agilent Technologies, USA).

[2] = Emission spectra and fluorescence quantum yield; type: physicochemical
Method: as §1

Fluorescence lifetime = type: physicochemical
[3] = test system: vimentin-HaloTag fusion protein in a living HeLa cell; assay: Confocal and STED imaging of vimentin-HaloTag in living cells; type: cell-based; conditions: 1 μM for 20 min at growth conditions, 10 min wash; excitation 594 nm
Method: (§2) STED and confocal counterpart images were acquired using the commercially available two-color STED 775 quad scanning microscope from Abberior Instruments (Gottingen, Germany) equipped with an Olympus IX83 microscope stand and an Olympus UplanSApo 100×/1.4 OIL objective. Dyes were excited respective their excitation; the STED laser was pulsed at 775 nm.
(§3) For these experiments, STED optical microscopy was performed as indicated above.
The vimentin-HaloTag was labeled with 16-Halo (1 μM for 20 min at growth conditions, 10 min wash) and excited using a pulsed 594 nm laser. Fluorescence was detected in both available detection channels (605-625 nm, 655-715nm) and summed up for the final images. Scale bar: 4 μm; pixel dwell time: 10 μs; pixel size: 20 nm for both the STED and the confocal image. Each line was scanned four times, and the counts were accumulated.

[4] = test system: tubulin filaments in a methanol-fixed Vero cell; assay: Confocal and STED imaging of immunolabelled tubulin filaments; type: cell-based; design: key to verified as a label in STED microscopy: verified as a label in super-resolution microscopy based on stimulated emission depletion (STED with 775 nm STED laser)
Method: as §2, §3
Tubulin was marked using a mouse monoclonal primary antibody against alpha-tubulin together with secondary antibody detection (sheep-anti-mouse conjugated with the dye 23-NHS). 23 was excited using a pulsed 485 nm laser. Fluorescence was detected in both available detection channels (605-625 nm, 655-715nm) and summed up for the final images. Scale bar: 4 μm; pixel dwell time: 10 μs; pixel size: 25 nm for both the STED and the confocal image. Each line in the STED channel was scanned twice, and the counts were accumulated.

Row | Compound | Absorption max. ([1]; in acetonitrile) [nm] | ε at absorption max. ([1]; in acetonitrile) [M⁻¹ cm⁻¹] | Emission max. ([2]; in acetonitrile) [nm] | QY (fluorescence quantum yield, Φfl) ([2]; in acetonitrile) | Stokes shift ([2]; in acetonitrile) | fluorescence lifetime (Fluorescence lifetime; in acetonitrile) | Absorption max. ([1]; in aq. PBS, pH 7.4) [nm] | ε at absorption max. ([1]; in aq. PBS, pH 7.4) [M⁻¹ cm⁻¹] | Emission max. ([2]; in aq. PBS, pH 7.4) [nm] | QY (fluorescence quantum yield, Φfl) ([2]; in aq. PBS, pH 7.4) | Stokes shift ([2]; in aq. PBS, pH 7.4) | Stability (Stability of the dyes) | further results
1 | CCN(CC)c1ccc2c(P(=O)(OC)OC)c(-c3nc4ccccc4s3)c(=O)oc2c1 [Compound 1, Dimethyl [3-(benzo[d]thiazol-2-yl)-7-(diethylamino)-2-oxo-2H-chromen-4-yl]phosphonate] | 439 | 24000 | 651 | 0.20 | 212^a nm | 2.55^a ns | – | – | – | – | – | – | –
2 | COP(=O)(OC)c1c(-c2nc3ccccc3s2)c(=O)oc2cc(N3CC(O)C3)ccc12 [Compound 2, Dimethyl [3-(benzo[d]thiazol-2-yl)-7-(3-hydroxyazetidin-1-yl)-2-oxo-2H-chromen-4-yl]phosphonate] | 424 | 19000 | 651 | 0.16 | 227^a nm | 1.99^a ns | – | – | – | – | – | – | –
3 | CCN(CC)c1ccc2c(P(=O)(OC(C)(C)C)OC(C)(C)C)c(-c3nc4ccccc4s3)c(=O)oc2c1 [Compound 3, Di-tert-butyl [3-(benzo[d]thiazol-2-yl)-7-(diethylamino)-2-oxo-2H-chromen-4-yl]phosphonate] | 434 | 39000 | 658 | 0.29 | 224^a nm | 2.49^a ns | – | – | – | – | – | – | –
4 | CCN(CC)c1ccc2c(P(=O)(O)O)c(-c3nc4ccccc4s3)c(=O)oc2c1 [Compound 4, [3-(Benzo[d]thiazol-2-yl)-7-(diethylamino)-2-oxo-2H-chromen-4-yl]phosphonic acid] | – | – | 613 | 0.04 | – | 2.91 ns | 419 | 22000 | 613 | 0.04 | 194^b nm | – | fluorescence lifetime (Fluorescence lifetime; in methanol + 1% v/v trifluoroacetic acid): 1.85 ns and 0.93 ns
5 | CN(C)c1ccc2c(P(=O)(Oc3ccccc3C(=O)[O-])N(C)C)c3ccc(=[N+](C)C)cc-3oc2c1 (stereo not shown) [Compound 9, 2-[[3,6-Bis(dimethylamino)-9H-xanthenylium-9yl](dimethylamino)phosphoryloxy]-benzoate] | – | – | – | – | – | – | 603 | 69000 | 638 | 0.09 | 35 nm | moderate | Absorption max. ([1]; in methanol): 589 nm; ε at absorption max. ([1]; in methanol): 49000 M⁻¹ cm⁻¹; Emission max. ([2]; in methanol): 622 nm; QY (fluorescence quantum yield, Φfl) ([2]; in methanol): 0.36; Stokes shift ([2]; in methanol): 33 nm; fluorescence lifetime (Fluorescence lifetime; in aq. PBS, pH 7.4): 1.88 ns
6 | CCOP(=O)(c1c2ccc(=[N+](C)C)cc-2oc2cc(N(C)C)ccc12)N(C)CCC(=O)O.O=C([O-])C(F)(F)F (stereo not shown) [Compound 10] | 615 | 22224 | 652 | 0.46 | 37 nm | – | 625 | 13816 | 670 | 0.15 | 45 nm | – | stability of solutions (Stability of the dyes; protic solvents (MeOH, H2O), particularly in the presence of acids, forms compound 11): spontaneously decompose
7 | CN(C)c1ccc2c(P(=O)([O-])CCC(=O)NCCOCCOCCCCCCCl)c3ccc(=[N+](C)C)cc-3oc2c1 [Compound 16-Halo, 3-[[2[2-(6-chlorohexyloxy)ethoxy]ethyl]amino]-3-oxopropyl[6-(dimethylamino)-3-(dimethyliminio)-3H-xanthen-9-yl]phosphinate] | – | – | – | – | – | – | – | – | – | – | – | – | labelling of vimentin-HaloTag [3]: labeled
8 | CC[N+](CC)=c1ccc2c(P(=O)(OC)OC)c3c(oc-2c1)-c1ccc(N(C)C)cc1CC3.O=C([O-])C(F)(F)F [Compound 20, 10-(Diethylamino)-7-(dimethoxyphosphoryl)-3-(dimethylamino)-6,7-dihydro-5H-benzo[c]xanthenylium trifluoroacetate] | 681 | 40000 | – | – | 56 nm | 1.50 ns | 693 | 29000 | 754 | 0.02 | 61 nm | – | Emission max. ([2]; in acetonitrile, trifluoroacetate): 737 nm and 754 nm
9 | COP(=O)([c+]1c2ccc(N(C)C)cc2sc2cc(N(C)C)ccc21)N(C(C)C)C(C)C.O=C([O-])C(F)(F)F (stereo not shown) [Compound 21, 9-[(Diisopropylamino)(methoxy)phosphoryl]-3,6-bis(dimethylamino)-9H-thioxanthen-9-ylium trifluoroacetate] | 654 | 64000 | 728 | 0.10 | 74^a nm | 0.77 ns | – | – | – | – | – | moderate | –
10 | CN(C)c1ccc2c([PH](=O)O)c3ccc(N(C)C)cc3[n+](CCCC(=O)O)c2c1.O=C([O-])C(F)(F)F [Compound 23, 10-(3-Carboxypropyl)-3,6-bis(dimethylamino)-9-(hydroxyhydrophosphoryl)acridinium trifluoroacetate] | – | – | – | – | – | – | 535 | 38000 | – | 0.14 and 0.10 | – | – | Absorption max. ([1]; in methanol): 527 nm; ε at absorption max. ([1]; in methanol): 67000 M⁻¹ cm⁻¹; verified as a label in STED microscopy ([4]; STED with 775 nm STED laser): f; Emission max. ([2]; in methanol): 579 nm; QY (fluorescence quantum yield, Φfl) ([2]; in methanol): 0.75; fluorescence lifetime (Fluorescence lifetime; in aq. PBS, pH 7.4): 1.36 ns
11 | CN(C)c1ccc2c([PH](=O)[O-])c3ccc(N(C)C)cc3[n+](CCCC(=O)ON3C(=O)CCC3=O)c2c1 [Compound 23-NHS, [10-(3-Carboxypropyl)-3,6-bis(dimethylamino)acridinium-9-yl]phosphinate NHS ester] | – | – | – | – | – | – | – | – | – | – | – | – | labelling of tubulin via secondary antibody conjugate ([4]; sheep-anti-mouse antibody conjugated with the dye, excitation 485 nm): marked
12 | CC(C)OP(=O)(OC(C)C)C1=C2C=CC(=[N+](C)C)C=C2C(C)(C)c2cc(N(C)C)ccc21 [Compound 24, 9-(Diisopropoxyphosphoryl)-3,6-bis(dimethylamino)-10,10-dimethyl-9,10-dihydro-anthracenylium trifluoromethanesulfonate] | – | – | – | – | – | – | – | – | – | – | – | moderate | –
13 | C=CCOP(=O)(C1=C2C=CC(=[N+](C)C)C=C2C(C)(C)c2cc(N(C)C)ccc21)N(C(C)C)C(C)C (stereo not shown) [Compound 25, 9-[(Allyloxy)(diisopropylamino)phosphoryl]-3,6-bis(dimethylamino)-10,10-dimethyl-9,10-dihydroanthracenylium trifluoromethanesulfonate] | – | – | – | – | – | – | – | – | – | – | – | poor | –
14 | C=CCOP(=O)(C1=c2cc3c(cc2C(C)(C)c2cc4c(cc21)CCCN4CCOC)=[N+](CCOC)CCC3)N(C(C)C)C(C)C (stereo not shown) [Compound 26, 6-[(Allyloxy)(diisopropylamino)phosphoryl]-1,11-bis(2-methoxyethyl)-13,13-dimethyl-1,2,3,4,6,8,9,10,11,13-decahydrobenzo[1,2-g:5,4-g′]diquinolin-6-ylium trifluoroacetate] | 724 | 46700 | 812 | 0.08 | 88 nm | – | 734 | 34700 | 860 | 0.05 | 126 nm | poor | –
15 | COP(=O)([C+]1c2ccc(N(C)C)cc2-c2cccc3c(N(C)C)ccc1c23)N(C(C)C)C(C)C.O=C([O-])C(F)(F)F (stereo not shown) [Compound 28, 7-[(Diisopropylamino)(methoxy)phosphoryl]-4,10-bis(dimethylamino)-7H-benzo[de]anthracen-7-ylium trifluoroacetate] | – | – | – | – | – | – | 644 | 7600 | 782 | 0.04 | 138^b nm | poor | –
16 | CC1=CC(C)=[N+]2C1=C(P(=O)(OC(C)C)OC(C)C)c1c(C)cc(C)n1[B-]2(F)F [Compound 29, 10-(Diisopropoxyphosphoryl)-5,5-difluoro-1,3,7,9-tetramethyl-5H-dipyrrolo[1,2-c:2′,1′-f][1,3,2]diazaborinin-4-ium-5-uide] | 574 | 33000 | 647 | < 0.002 | 73^a nm | – | – | – | – | – | – | – | fluorescence emission (in words) [2]: no emission (quencher)
